Data from patent US8367696B2, “Aza-bridged-ring compound” (Astellas Pharma Inc., priority 2007, dated 2013).

Key:
[1] = test system: carbachol-induced airway contraction; test: Test of rat airway contraction (carbachol-induced rise in airway pressure); type: in vivo; conditions: for ID50, carbachol-induced airway contraction inhibitory action: evaluation after 3 hours from oral administration, carbachol 30 μg/kg i.v.; for Inhibition rate, carbachol-induced airway contraction inhibitory action: evaluation after 24 hours from administration into the trachea of 0.5 μg/kg of a drug
Protocol: a. Test of Rat Airway Contraction
Male SD rats (250 to 400 g) were anesthetized by the intraperitoneal administration of pentobarbital sodium (Nembutal; 50 mg/kg), and the major airway was dissected. An airway cannula was intubated into the trachea, and the pressure in the airway was measured by a pressure transducer. After administration of pancuronium bromide (0.2 mg/kg, i.v.), a stable pressure in the airway was obtained before the experiment was initiated. For the experiment, by administration into the external maxillary vein/administration into the duodenum/oral administration/administration into the airway, physiological saline (in the case of oral administration/administration into the duodenum, distilled water) or a compound to be tested was administered, and after 5 to 30 minutes in the case of intravenous administration, after 0.25 to 6 hours in the case of oral administration into the duodenum, and after 0.25 to 72 hours in the case of administration into the airway, carbachol was intravenously administered at a dose (volume) of 30 μg/kg (1 mL/kg), and the pressures in the airway were then measured, respectively, for a period of 5 minutes. […]

[2] = target: muscarinic M3 receptor (Rattus norvegicus, UniProt P08483); conditions: receptor binding antagonistic experiment, [3H]-N-methylscopolamine, rat membrane specimen, 25° C. 2 hours
Chain of muscarinic M3 receptor (P08483 whole entry): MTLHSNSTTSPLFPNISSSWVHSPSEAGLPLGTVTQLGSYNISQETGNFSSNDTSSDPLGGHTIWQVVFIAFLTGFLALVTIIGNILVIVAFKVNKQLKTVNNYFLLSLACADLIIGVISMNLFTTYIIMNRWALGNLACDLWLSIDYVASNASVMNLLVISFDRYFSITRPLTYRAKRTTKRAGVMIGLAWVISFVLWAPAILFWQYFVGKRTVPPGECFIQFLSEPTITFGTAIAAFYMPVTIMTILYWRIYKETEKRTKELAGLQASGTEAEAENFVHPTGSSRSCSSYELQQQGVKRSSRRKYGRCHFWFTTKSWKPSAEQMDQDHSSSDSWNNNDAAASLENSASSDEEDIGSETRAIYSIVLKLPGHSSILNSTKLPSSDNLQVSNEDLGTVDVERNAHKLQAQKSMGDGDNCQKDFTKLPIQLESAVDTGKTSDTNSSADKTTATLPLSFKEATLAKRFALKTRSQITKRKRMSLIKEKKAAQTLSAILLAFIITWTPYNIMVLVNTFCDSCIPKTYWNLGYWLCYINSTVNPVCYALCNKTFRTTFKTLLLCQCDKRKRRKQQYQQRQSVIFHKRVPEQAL
Protocol: Test of Muscarinic Receptor Affinity (In Vitro)
The submandibular gland/heart and the cerebral cortex were harvested from male SD rats (Japan SLC, Inc.) and a 10-fold volume of a 25 mM Tris buffer (pH=7.4, hereinafter referred to as a Tris buffer) containing 3.75 mM magnesium chloride was added thereto, followed by homogenization under ice-cooling. Centrifugation was performed at 1,000 g, 4° C. for 10 minutes, and then ultracentrifugation was performed at 100,000 g, 4° C. for 30 minutes. This precipitate was suspended in a Tris buffer and stored at −80° C. After this, it was melted in use, and tested.
A membrane specimen of any one of the submandibular gland, the heart, and the cerebral cortex, [^3H]-N-methylscopolamine (N-methylscopolamine) and a compound to be tested were incubated in 0.3 mL of a Tris buffer at 25° C. for 2 hours, and suction-filtered through a glass filter (Whatman GF/B), and the filter was washed 8 times with 0.3 mL of a Tris buffer. The radioactivity of [^3H]-N-methylscopolamine adsorbed on the filter was measured with Top Count. Further, the receptor-specific binding was determined by adding 1 μM N-methylscopolamine. […]

| Structure (SMILES) | ID50, carbachol-induced airway contraction inhibitory action [1] [mg/kg] | Inhibition rate, carbachol-induced airway contraction inhibitory action [1] [%] | also measured |
| --- | --- | --- | --- |
| Cl.O=C(Nc1ncsc1-c1ccccc1)OCC12CCN(CC1)CC2 [Example 6, 1-azabicyclo[2.2.2]oct-4-ylmethyl(5-phenyl-1,3-thiazol-4-yl)carbamate hydrochloride] | 0.1 | – | – |
| O=C(Nc1ncsc1-c1ccccc1)OC12CCCN(CC1)CC2 [Example 14, 1-azabicyclo[3.2.2]non-5-yl(5-phenyl-1,3-thiazol-4-yl)carbamate] | 0.027 | – | – |
| C[N+]12CCC(OC(=O)Nc3ncsc3-c3cccc(Cl)c3)(CC1)CC2 [Example 32] | – | 82 | – |
| O=C(Nc1ccsc1-c1ccccc1)OCC1C[N+]2(CCCc3ccccc3)CCC1CC2 (centres unmarked) [Example 43] | – | 64 | – |
| O=C(Nc1ncsc1-c1ccccc1)OC12CC[N+](CCOc3ccccc3)(CC1)CC2 [Example 46] | – | 90 | – |
| O=C(Nc1ncsc1-c1ccccc1)OC12CC[N+](CCc3ccccc3)(CC1)CC2 [Example 50] | – | 61 | – |
| C[N+]12CCC(OC(=O)Nc3ncsc3-c3cc(F)ccc3F)(CC1)CC2.[I-] [Example 57] | – | 64 | – |
| C[N+]12CCCC(OC(=O)Nc3ncsc3-c3ccccc3)(CC1)CC2.[I-] [Example 65] | – | 61 | – |
| O=C(Nc1ncsc1-c1cccc(Cl)c1)OC12CC[N+](CCOc3ccccc3)(CC1)CC2.[Br-] [Example 66] | – | 80 | – |
| O=C(Nc1ncsc1-c1ccccc1)OC12CCN(CC1)CC2 [Example 95] | – | – | Ki [2]: 0.2 nM |
| Cl.O=C(Nc1ncsc1-c1ccccc1)OC1C2CC3CC1CN(C3)C2 (centres unmarked) [Example 110] | 0.41 | – | – |
| Cl.O=C(Nc1ccsc1-c1ccccc1)OCC1CN2CCC1CC2 (centres unmarked) [Example 136] | 0.68 | – | – |
| Cl.O=C(Nc1ncsc1-c1ccc(F)cc1)OC12CCN(CC1)CC2 [Example 156] | 0.091 | – | – |
| Cl.O=C(Nc1ncsc1-c1ccccc1)OCC1CN2CCCC1C2 (centres unmarked) [Example 264] | 0.21 | – | – |
